Measurements taken from patent publication US7402314B2, “In vivo activation of tumor-specific cytotoxic T cells” (The Scripps Research Institute, priority 1995, dated 2008).

Target: A2.1/K^b (UniProt P01901+P04439, D140Y/D185E/D98H/E176V/G131W/I119V/I121R/I166T/N151K/N90K/Q86G/Q94H/R138H/R169H)
Assay type: binding, human-mouse chimeric

Sequence	binding of test peptide to A2.1/K^b (percent specific lysis of EA2/K^b targets by influenza A-specific CTL)	inhibition of binding of the influenza A-derived peptide to A2.1/K^b by Her-2/Neu-derived peptides
ILKEPVHGV [HIV-1 RT 476-484, reference compound]	efficiently bound to A2.1/K^b	–
ILLVVVLGV [Peptide H9]	–	binding at the highest efficiency
